Measurements reported in ChEMBL document CHEMBL5143538, “Discovery, Structure Correction, and Biosynthesis of Actinopyrones, Cytotoxic Polyketides from the Deep-Sea Hydrothermal-Vent-Derived Streptomyces sp. SCSIO ZS0520” (J Nat Prod, 2022).

Assays:
Format in all cases: functional, cell-based
NCI-H460 = test: Cytotoxicity against human NCI-H460 cells assessed as inhibition of cell proliferation measured after 68 hrs by MTT assay; conditions: NCI-H460, 68 h
HT-29 = test: Cytotoxicity against human HT-29 cells assessed as inhibition of cell proliferation measured after 68 hrs by MTT assay; conditions: HT-29, 68 h
MDA-MB-231 = test: Cytotoxicity against human MDA-MB-231 cells assessed as inhibition of cell proliferation measured after 68 hrs by MTT assay; conditions: MDA-MB-231, 68 h
Huh-7 = test: Cytotoxicity against human Huh-7 cells assessed as inhibition of cell proliferation measured after 68 hrs by MTT assay; conditions: Huh-7, 68 h
MDA-MB-435 = test: Cytotoxicity against human MDA-MB-435 cells assessed as inhibition of cell proliferation measured after 68 hrs by MTT assay; conditions: MDA-MB-435, 68 h
A549 = test: Cytotoxicity against human A549 cells assessed as inhibition of cell proliferation measured after 68 hrs by MTT assay; conditions: A549, 68 h

Row | SMILES | IC50 (NCI-H460) [µM] | IC50 (HT-29) [µM] | IC50 (MDA-MB-231) [µM] | IC50 (Huh-7) [µM] | IC50 (MDA-MB-435) [µM] | IC50 (A549) [µM]
1 | C/C=C(\C)[C@@H](O)[C@@H](C)/C=C(C)/C=C/C[C@H](C)/C=C/c1oc(=O)c(C)c(O)c1C | > 50 | > 50 | > 50 | > 50 | > 50 | > 50
2 | C/C=C(\C)[C@@H](O)[C@@H](C)/C=C(C)/C=C/C[C@H](C)/C=C/c1oc(OC)c(C)c(=O)c1C | > 50 | > 50 | > 50 | > 50 | > 50 | > 50
3 | C/C=C(\C)[C@@H](O)[C@@H](C)/C=C(C)/C=C/C[C@H](C)/C=C/C(=O)CC | > 50 | > 50 | > 50 | > 50 | > 50 | > 50
4 | C/C=C(\C)[C@@H](O[C@@H]1O[C@H](CO)[C@@H](O)[C@H](O)[C@H]1O)[C@@H](C)/C=C(C)/C=C/C[C@H](C)/C=C/c1oc(OC)c(C)c(=O)c1C (stereo in doubt) | 0.66 | 2.22 | 1 | 1.18 | 0.26 | 0.75
5 | COc1cccc2c1C(=O)c1c(O)c3c(c(O)c1C2=O)C[C@@](O)(C(=O)CO)C[C@@H]3O[C@H]1C[C@H](N)[C@@H](O)[C@H](C)O1 [EPIRUBICIN] | 0.06 | 3.36 | 1.2 | 9.12 | 0.23 | 1.32
